Test system: MDCKII cells
Assay: Transwell permeability assay across MDCKII monolayer
Assay type: in vitro ADME, canine
Details: transwell (2D), LY 100 μM

Lucifer yellow CH-lithium salt [LY]
permeability in transwell assay (2D): about 3 × 10^−7 cm s^−1
